# Source: patent US20100069366A1, “ANTIBACTERIAL QUINOLINE DERIVATIVES” (JANSSEN-CILAG, priority 2006, published 2010)
# Read-outs that look alike come from different tables or passages of the source.
# Key:
# Assay type in all cases: cell-based
# [1] = system: M. Smegmatis ATCC607; assay: In-vitro anti-bacterial activity against strain M. smegmatis ATCC607; conditions: for IC90: Mycolicibacterium smegmatis
# Method: Flat-bottom, sterile 96-well plastic microtiter plates were filled with 180 μl of sterile deionized water, supplemented with 0.25% BSA. Subsequently, stock solutions (7.8× final test concentration) of compounds were added in 45 μl volumes to a series of duplicate wells in column 2 so as to allow evaluation of their effects on bacterial growth. Serial five-fold dilutions (45 μl in 180 μl) were made directly in the microtiter plates from column 2 to 11 using a customised robot system (Zymark Corp., Hopkinton, Mass.). Pipette tips were changed after every 3 dilutions to minimize pipetting errors with high hydrophobic compounds. Untreated control samples with (column 1) and without (column 12) inoculum were included in each microtiter plate. Approximately 250 CFU per well of bacteria inoculum, in a volume of 100 μl in 2.8× Mueller-Hinton broth medium, was added to the rows A to H, except column 12. The same volume of broth medium without inoculum was added to column 12 in row A to H. The cultures were incubated at 37° C. for 48 hours in a humidified 5% CO2 atmosphere (incubator with open air valve and continuous ventilation). At the end of incubation, two days after inoculation, the bacterial growth was quantitated fluorometrically. Therefore Alamar Blue (10×) was added to all wells in a volume of 20 μl and plates were incubated for another 2 hours at […]
# The fluorescence was read in a computer-controlled fluorometer (Cytofluor, Biosearch) at an excitation wavelength of 530 nm and an emission wavelength of 590 nm (gain 30).
# [2] = system: Staphylococcus aureus (ATCC29213); assay: Microtitre plate assay, IC90 determination, STA 29213
# Method: (§1) The bacteria used in this study were grown overnight in flasks containing 100 ml Mueller-Hinton Broth (Becton Dickinson—cat. no. 275730) in sterile de-ionized water, with shaking, at 37° C. Stocks (0.5 ml/tube) were stored at −70° C. until use. Bacteria titrations were performed in microtiter plates to detect the TCID50, in which the TCID50 represents the dilution that gives rise to bacterial growth in 50% of inoculated cultures.
# (§2) In general, an inoculum level of approximately 100 TCID50 was used for susceptibility testing.
# (§3) Flat-bottom, sterile 96-well plastic microtiter plates were filled with 180 μl of sterile deionized water, supplemented with 0.25% BSA. Subsequently, stock solutions (7.8× final test concentration) of compounds were added in 45 μl volumes in column 2 Serial five-fold dilutions (45 μl in […]) were made directly in the microtiter plates from column 2 to reach column 11. Untreated control samples with (column 1) and without (column 12) inoculum were included in each microtiter plate. Depending on the bacteria type, approximately 10 to 60 CFU per well of bacteria inoculum (100 TCID50), in a volume of 100 μl in 2.8× Mueller-Hinton broth medium, was added to the rows A to H, except column 12. The same volume of broth medium without inoculum was added to column 12 in row A to H. The cultures were incubated at 37° C. for 24 hours under a normal atmosphere (incubator with open air valve and continuous ventilation). At the end of incubation, one day after inoculation, the bacterial growth was quantitated fluorometrically. Therefore resazurin (0.6 mg/ml) was added in a volume of 20 μl to all wells 3 hours after inoculation, and the plates were re-incubated overnight. A change in colour from blue to pink indicated the growth of bacteria. The fluorescence was read in a computer-controlled fluorometer (Cytofluor Biosearch) at an excitation wavelength of 530 nm and an emission wavelength of 590 nm. The % growth inhibition achieved by the compounds was calculated according to standard methods.
# [3] = system: Streptococcus pneumoniae (ATCC6305); assay: Microtitre plate assay, IC90 determination, SPN 6305; conditions: 90% inhibitory concentration for bacterial growth, resazurin
# Method: as §1, §2, §3
# [4] = ATCC607, 48 h, read-out: M. smegmatis IC90 (μg/ml), 90% inhibitory concentration for bacterial growth, Alamar Blue fluorescence
# [5] = Staphylococcus aureus, ATCC29213, read-out: IC90 (μg/ml) STA 29213
# [6] = Streptococcus pneumoniae, ATCC6305, read-out: IC90 (μg/ml) SPN 6305, Streptococcus pneumoniae ATCC6305
# [7] = ATCC607, 90% inhibitory concentration for bacterial growth, 48 hours, Alamar Blue fluorescence, read-out: M. smegmatis IC90
# [8] = Staphylococcus aureus ATCC29213, 90% inhibitory concentration for bacterial growth, resazurin, read-out: IC90 (μg/ml) STA 29213
# [9] = Streptococcus pneumoniae ATCC6305, read-out: IC90 (μg/ml) SPN 6305
# [10] = 90% inhibitory concentration for bacterial growth, 48 hours, Alamar Blue fluorescence
# [11] = Staphylococcus aureus ATCC29213, 90% inhibitory concentration for bacterial growth, resazurin
# [12] = Streptococcus pneumoniae ATCC6305
"IC90 [2, 8] [µg/mL]","IC90 [3, 9] [µg/mL]",SMILES,"IC90 [1, 4] [µg/mL]","IC90 [3, 6] [µg/mL]","IC90 [1, 7] [µg/mL]",further results
–,–,CSc1nc2ccc(Br)cc2cc1C(/C(=C/CN(C)C)c1ccccc1)c1ccccc1 (stereo not shown) [Compound 4],7.98,17.9,–,"IC90 [2, 5]: 40 µg/mL"
1.63,2.05,COc1nc2ccc(Br)cc2cc1C(/C(=C/Cc1ccccc1)CCN(C)C)c1ccccc1 (stereo not shown) [Compound 7],–,–,1.63,–
33.8,6.74,COc1nc2ccc(Br)cc2cc1/C(=C(\C)CCN(C)C)c1ccccc1 [Compound 15],–,–,1.35,–
7.82,1.56,COc1nc2ccc(Br)cc2cc1C(/C(=C\CN(C)C)c1ccsc1)c1ccccc1 (stereo not shown) [Compound 16],–,–,1.75,–
17.5,8.78,COc1nc2ccc(Br)cc2cc1/C(=C(/CCN(C)C)c1ccsc1)c1ccccc1 [Compound 18],–,–,9.85,–
–,–,Clc1ccc(/C(=C(\CCCCN2CCCCC2)c2ccccc2)c2cnc3ccccc3c2)cc1 [Compound 19],1.52,–,–,–
–,–,CSc1nc2ccc(-c3ccccc3)cc2cc1C(/C(=C/CN(C)C)c1ccccc1)c1ccccc1 (stereo not shown) [Compound 20],1.41,1.41,–,"IC90 [2, 5]: 1.58 µg/mL"
–,–,COc1nc2ccc(-c3ccco3)cc2cc1C(/C(=C/CN(C)C)c1cccc2ccccc12)c1ccccc1 (stereo not shown) [Compound 21],14.8,23.4,–,"IC90 [2, 5]: 41.7 µg/mL"
–,–,COc1nc2ccc(-c3ccco3)cc2cc1/C(=C(/CCN(C)C)c1cccc2ccccc12)c1ccccc1 [Compound 22],1.66,20.9,–,"IC90 [2, 5]: 20.9 µg/mL"
–,–,COc1nc2ccc(-c3cccnc3)cc2cc1C(=C(CCN(C)C)c1cccc2ccccc12)c1ccccc1 [Compound 41],–,–,–,"M. smegmatis IC90 [1, 10]: 3.79 µg/mL; IC90 (μg/ml) STA 29213 [2, 11]: 8.49 µg/mL; IC90 (μg/ml) SPN 6305 [3, 12]: 9.53 µg/mL"
–,–,COc1nc2ccc(-c3ccccc3)cc2cc1C(=C(CCn1ccnc1)c1ccccc1)c1ccccc1 [Compound 46],–,–,–,"M. smegmatis IC90 [1, 10]: 1.61 µg/mL; IC90 (μg/ml) STA 29213 [2, 11]: 9.03 µg/mL; IC90 (μg/ml) SPN 6305 [3, 12]: 8.05 µg/mL"
–,–,c1ccc(/C(CCCCN2CCCCC2)=C(/c2ccccc2)c2cnc3ccccc3c2)cc1 [Compound 49],7.08,8.91,–,"IC90 [2, 5]: 44.7 µg/mL"
–,–,Clc1ccc(/C(CCCCN2CCCCC2)=C(/c2ccccc2)c2cnc3ccccc3c2)cc1 [Compound 50],1.92,9.6,–,–
–,12.6,COc1ccc(/C(CCCCN2CCCCC2)=C(/c2ccc(C#N)cc2)c2cnc3ccccc3c2)cc1 [Compound 56],–,–,7.95,–
–,–,COc1ccc(/C(=C(\CCCCN2CCCCC2)c2ccccc2)c2cnc3ccccc3c2)cc1 [Compound 57],7.55,9.51,–,–
–,11.3,COc1ccc(/C(CCCCN2CCCCC2)=C(/c2ccc(OC)cc2)c2cnc3ccccc3c2)cc1 [Compound 59],–,–,8.03,–
22.5,–,COc1nc2ccc(Br)cc2cc1C(/C(=C\CCCN1CCCN(C)CC1)c1ccc2ccccc2c1)c1ccccc1 (stereo not shown) [Compound 62],–,–,8.97,–
2.25,–,COc1nc2ccc(Br)cc2cc1C(/C(=C/CCCN1CCCN(C)CC1)c1ccc2ccccc2c1)c1ccccc1 (stereo not shown) [Compound 63],–,–,3.57,–
